target: T1, MDR1 (Homo sapiens, UniProt P08183); experiment: MDR1 membrane permeability test; type: in vitro ADME; conditions: pH 7.4, efflux ratio (ER), Papp B to A / A to B, human MDR1-expressing LLC-PK1 cells, read-out: MDR1 substrate screening 1 μM (MDRSUB1)/Ratio (NUMBER)
T1 construct: expressed in transfected cells
Procedure: MDR1 Membrane Permeability Test
When MDR1 is expressed in excess in LLC-PK1 cell, which is a polar cell, MDR1 is localized in apical membrane (A), thus promoting transcellular transport from the basement membrane side (B) toward direction A. When a ratio to the transcellular transport in the opposite direction is taken and a ratio to a control cell in which a mock vector has been introduced is further taken, an efflux ratio of MDR1 to simple diffusion (corrected efflux ratio) is calculated. Similarly, when a brain/plasma concentration ratio in Mdr1(−/−) mouse is divided by a brain/plasma concentration ratio in wild-type mouse, an efflux ratio of Mdr1 to simple diffusion in BBB (Kp, brain ratio, higher value means lower central nervous system permeability) is calculated. Adachi Y. et al. (Reference 1) has reported a positive correlation between corrected efflux ratio and Kp, brain ratio (FIG. 5(C)), and efflux ratio in MDR1 expressing cell and Kp, brain ratio (FIG. 5(B)).
To confirm the central nervous system permeability of the compounds of the present invention, a MDR1 membrane permeability test was performed by the following method.
Human MDR1-expressing LLC-PK1 cells were cultured according to the report of Takeuchi et al. (Reference 2). Human MDR1-expressing LLC-PK1 cells were cultured in 10% fetal bovine serum (Invitrogen), 500 μg/ml G418 (Invitrogen), 150 ng/ml colchicine-containing M199 medium (Invitrogen) under 5% CO2 conditions at 37° C.
Transcellular transport was performed according to the report of Sugimoto et al. (Reference 3). The cells were cultured for 3 days on HTS Transwell (registered trademark) 96 well permeable support (pore size 0.4 μm, 0.143 cm^2 surface area, Corning Life Sciences) having polyethylene terephthalate membrane on which the cells had been seeded at 3.45×10^4 cells/well. After preincubation in M199 medium (containing 10 mmol/L HEPES, 1% BSA, pH 7.4) for 30 min, a drug solution (10 μmol/L digoxin, 200 μmol/L LY, […]) dissolved in M199 medium was added to the apical side or basolateral side of the Transwell by 75 or 250 μL each and the cells were cultured under 5% CO2 conditions at 37° C. After 1 hr, the sample was collected from the side opposite to the side where the drug solution was added, and the concentration of the test compound was measured by LC-MS/MS. As an internal standard substance, 100 ng/mL alprenolol and diclofenac were used. The analysis conditions were as follows.
Papp, A to B and Papp, B to A (apparent permeability) were calculated from the formula (1), and the efflux ratio (ER) was calculated from the formula (2).

T1 sequence (P08183 whole entry): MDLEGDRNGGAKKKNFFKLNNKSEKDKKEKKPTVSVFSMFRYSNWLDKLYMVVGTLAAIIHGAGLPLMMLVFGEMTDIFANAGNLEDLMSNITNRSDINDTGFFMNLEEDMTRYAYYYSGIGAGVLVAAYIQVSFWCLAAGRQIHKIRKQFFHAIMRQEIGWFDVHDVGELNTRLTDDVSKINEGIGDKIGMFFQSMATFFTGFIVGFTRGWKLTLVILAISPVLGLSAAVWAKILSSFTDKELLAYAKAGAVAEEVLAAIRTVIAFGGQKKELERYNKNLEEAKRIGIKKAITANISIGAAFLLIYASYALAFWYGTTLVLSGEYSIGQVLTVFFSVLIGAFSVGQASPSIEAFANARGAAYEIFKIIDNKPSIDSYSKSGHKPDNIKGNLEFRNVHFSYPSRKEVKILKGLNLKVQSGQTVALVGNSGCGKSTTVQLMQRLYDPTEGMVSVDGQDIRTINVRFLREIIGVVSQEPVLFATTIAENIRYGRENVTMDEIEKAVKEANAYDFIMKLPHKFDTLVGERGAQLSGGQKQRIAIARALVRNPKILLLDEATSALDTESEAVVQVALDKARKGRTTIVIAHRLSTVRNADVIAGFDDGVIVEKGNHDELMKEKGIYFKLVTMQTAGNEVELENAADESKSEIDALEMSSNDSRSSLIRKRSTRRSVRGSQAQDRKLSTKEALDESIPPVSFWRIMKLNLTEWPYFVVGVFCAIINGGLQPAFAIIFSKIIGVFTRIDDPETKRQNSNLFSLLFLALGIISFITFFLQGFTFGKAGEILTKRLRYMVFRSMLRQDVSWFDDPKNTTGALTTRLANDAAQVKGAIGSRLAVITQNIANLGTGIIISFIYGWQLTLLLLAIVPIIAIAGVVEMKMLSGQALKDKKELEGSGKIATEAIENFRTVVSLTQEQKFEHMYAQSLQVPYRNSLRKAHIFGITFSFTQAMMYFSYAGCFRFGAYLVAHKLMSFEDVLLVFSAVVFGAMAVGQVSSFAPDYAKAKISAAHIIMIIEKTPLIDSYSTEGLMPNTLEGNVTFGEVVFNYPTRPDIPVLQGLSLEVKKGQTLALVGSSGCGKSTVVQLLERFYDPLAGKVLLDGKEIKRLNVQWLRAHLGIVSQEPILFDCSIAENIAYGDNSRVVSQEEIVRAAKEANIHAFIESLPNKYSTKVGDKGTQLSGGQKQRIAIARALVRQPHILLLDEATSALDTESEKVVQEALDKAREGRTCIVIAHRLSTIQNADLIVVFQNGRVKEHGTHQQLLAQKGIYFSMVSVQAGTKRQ

efflux ratio at 1 hr, 1 μM | SMILES
0.83 | Cc1c(Cc2ccc(-n3cccn3)cc2)cc2c(=O)n([C@H]3CCOC[C@@H]3O)cnc2c1C [Comparative Example 1, 3-((3R,4S)-3-hydroxytetrahydro-2H-pyran-4-yl)-7,8-dimethyl-6-(4-(1H-pyrazol-1-yl)benzyl)quinazolin-4(3H)-one, reference compound]
1.3 | Cc1c(Cc2ccc(-n3cccn3)cc2)cc2c(=O)n([C@H]3CCOC[C@@H]3O)nnc2c1C [Comparative Example 2, 3-((3R,4S)-3-hydroxytetrahydro-2H-pyran-4-yl)-7,8-dimethyl-6-(4-(1H-pyrazol-1-yl)benzyl)-1,2,3-benzotriazin-4(3H)-one, reference compound]
3.5 | Cc1ccc(Cc2cc3c(=O)n([C@H]4CCOC[C@@H]4O)cnc3c(C)c2C)cn1 [Example 7, 1,5-anhydro-2,3-dideoxy-3-(7,8-dimethyl-6-((6-methylpyridin-3-yl)methyl)-4-oxoquinazolin-3(4H)-yl)-L-threo-pentitol]
11 | CCNC(=O)c1ccc(Cc2cc3c(=O)n([C@H]4CCOC[C@@H]4O)cnc3c(C)c2C)cc1 [Example 28, 1,5-anhydro-2,3-dideoxy-3-(6-(4-(ethylcarbamoyl)benzyl)-7,8-dimethyl-4-oxoquinazolin-3 (4H)-yl)-L-threo-pentitol]
20 | Cc1c(Cc2ccc(C(=O)NCCCF)cc2)cc2c(=O)n([C@H]3CCOC[C@@H]3O)cnc2c1C [Example 34, 1,5-anhydro-2,3-dideoxy-3-(6-(4-((3-fluoropropyl)carbamoyl)benzyl)-7,8-dimethyl-4-oxoquinazolin-3 (4H)-yl)-L-threo-pentitol]
11 | Cc1c(Cc2ccc(C(=O)NC(C)C)cc2)cc2c(=O)n([C@H]3CCOC[C@@H]3O)cnc2c1C [Example 36, 1,5-anhydro-2,3-dideoxy-3-(6-(4-(isopropylcarbamoyl)benzyl)-7,8-dimethyl-4-oxoquinazolin-3 (4H)-yl)-L-threo-pentitol]
12 | Cc1c(Cc2ccc(C(=O)NCCF)cc2)cc2c(=O)n([C@H]3CCOC[C@@H]3O)cnc2c1C [Example 37, 1,5-anhydro-2,3-dideoxy-3-(6-(4-((2-fluoroethyl)carbamoyl)benzyl)-7,8-dimethyl-4-oxoquinazolin-3 (4H)-yl)-L-threo-pentitol]
12 | Cc1c(Cc2ccc(C(=O)N3CC(O)C3)cc2)cc2c(=O)n([C@H]3CCOC[C@@H]3O)cnc2c1C [Example 40, 1,5-anhydro-2,3-dideoxy-3-(6-(4-((3-hydroxyazetidin-1-yl)carbonyl)benzyl)-7,8-dimethyl-4-oxoquinazolin-3 (4H)-yl)-L-threo-pentitol]

More lines, now with the values behind:

SMILES | efflux ratio at 1 hr, 1 μM
CNC(=O)c1ccc(Cc2cc3c(=O)n([C@H]4CCOC[C@@H]4O)cnc3c(Cl)c2C)cc1F [Example 10, 1,5-anhydro-3-(8-chloro-6-(3-fluoro-4-(methylcarbamoyl)benzyl)-7-methyl-4-oxoquinazolin-3(4H)-yl)-2,3-dideoxy-L-threo-pentitol] | 15
Cc1nn(C)cc1-c1ccc(Cc2cc3c(=O)n([C@H]4CCOC[C@@H]4O)cnc3c(Cl)c2C)cn1 [Example 12, 1,5-anhydro-3-(8-chloro-6-((6-(1,3-dimethyl-1H-pyrazol-4-yl)pyridin-3-yl)methyl)-7-methyl-4-oxoquinazolin-3(4H)-yl)-2,3-dideoxy-L-threo-pentitol] | 17
Cc1c(Cc2ccc(-c3cn(C)nn3)nc2)cc2c(=O)n([C@H]3CCOC[C@@H]3O)cnc2c1Cl [Example 14, 1,5-anhydro-3-(8-chloro-7-methyl-6-((6-(1-methyl-1H-1,2,3-triazol-4-yl)pyridin-3-yl)methyl)-4-oxoquinazolin-3(4H)-yl)-2,3-dideoxy-L-threo-pentitol] | 22
Cc1c(Cc2ccc(-c3cn(C)nn3)cc2)cc2c(=O)n([C@H]3CCOC[C@@H]3O)cnc2c1Cl [Example 15, 1,5-anhydro-3-(8-chloro-7-methyl-6-(4-(1-methyl-1H-1,2,3-triazol-4-yl)benzyl)-4-oxoquinazolin-3(4H)-yl)-2,3-dideoxy-L-threo-pentitol] | 9.7
Cc1ccc(Cc2cc3c(=O)n([C@H]4CCOC[C@@H]4O)cnc3c(Cl)c2C)cn1 [Example 16, 1,5-anhydro-3-(8-chloro-7-methyl-6-((6-methylpyridin-3-yl)methyl)-4-oxoquinazolin-3(4H)-yl)-2,3-dideoxy-L-threo-pentitol] | 6.8
Cc1c(Cc2ccc(-c3cn(C)nn3)cc2)cc2c(=O)n([C@H]3CCOC[C@@H]3O)nnc2c1Cl [Example 20, 1,5-anhydro-3-(8-chloro-7-methyl-6-(4-(1-methyl-1H-1,2,3-triazol-4-yl)benzyl)-4-oxo-1,2,3-benzotriazin-3(4H)-yl)-2,3-dideoxy-L-threo-pentitol] | 2.9
CNC(=O)c1ccc(Cc2cc3c(=O)n([C@H]4CCOC[C@@H]4O)cnc3c(F)c2C)cc1F [Example 21, 1,5-anhydro-2,3-dideoxy-3-(8-fluoro-6-(3-fluoro-4-(methylcarbamoyl)benzyl)-7-methyl-4-oxoquinazolin-3(4H)-yl)-L-threo-pentitol] | 20
Cc1c(Cc2ccc(-c3cn(C)nn3)cc2)cc2c(=O)n([C@H]3CCOC[C@@H]3O)cnc2c1F [Example 22, 1,5-anhydro-2,3-dideoxy-3-(8-fluoro-7-methyl-6-(4-(1-methyl-1H-1,2,3-triazol-4-yl)benzyl)-4-oxoquinazolin-3(4H)-yl)-L-threo-pentitol] | 12
Cc1nn(C)cc1-c1ccc(Cc2cc3c(=O)n([C@H]4CCOC[C@@H]4O)cnc3c(F)c2C)cn1 [Example 23, 1,5-anhydro-2,3-dideoxy-3-(6-((6-(1,3-dimethyl-1H-pyrazol-4-yl)pyridin-3-yl)methyl)-8-fluoro-7-methyl-4-oxoquinazolin-3(4H)-yl)-L-threo-pentitol] | 19
Cc1c(Cc2ccc(C(=O)NC3(C)COC3)cc2)cc2c(=O)n([C@H]3CCOC[C@@H]3O)cnc2c1C [Example 26, 1,5-anhydro-2,3-dideoxy-3-(7,8-dimethyl-6-(4-((3-methyloxetan-3-yl)carbamoyl)benzyl)-4-oxoquinazolin-3(4H)-yl)-L-threo-pentitol] | 24
Cc1c(Cc2ccc(C(=O)NCC(=O)N(C)C)cc2)cc2c(=O)n([C@H]3CCOC[C@@H]3O)cnc2c1C [Example 30, 1,5-anhydro-2,3-dideoxy-3-(6-(4-((2-(dimethylamino)-2-oxoethyl)carbamoyl)benzyl)-7,8-dimethyl-4-oxoquinazolin-3 (4H)-yl)-L-threo-pentitol] | 24
COC(C)(C)CNC(=O)c1ccc(Cc2cc3c(=O)n([C@H]4CCOC[C@@H]4O)cnc3c(C)c2C)cc1 [Example 31, 1,5-anhydro-2,3-dideoxy-3-(6-(4-((2-methoxy-2-methylpropyl)carbamoyl)benzyl)-7,8-dimethyl-4-oxoquinazolin-3 (4H)-yl)-L-threo-pentitol] | 12
Cc1c(Cc2ccc(C(=O)NC3CCOCC3)cc2)cc2c(=O)n([C@H]3CCOC[C@@H]3O)cnc2c1C [Example 32, 1,5-anhydro-2,3-dideoxy-3-(7,8-dimethyl-4-oxo-6-(4-(tetrahydro-2H-pyran-4-ylcarbamoyl)benzyl)quinazolin-3 (4H)-yl)-L-threo-pentitol] | 26
Cc1c(Cc2ccc(C(=O)NC3(C(F)F)CC3)cc2)cc2c(=O)n([C@H]3CCOC[C@@H]3O)cnc2c1C [Example 35, 1,5-anhydro-2,3-dideoxy-3-(6-(4-((1-(difluoromethyl)-cyclopropyl)carbamoyl)benzyl)-7,8-dimethyl-4-oxoquinazolin-3 (4H)-yl)-L-threo-pentitol] | 9
COCCCNC(=O)c1ccc(Cc2cc3c(=O)n([C@H]4CCOC[C@@H]4O)cnc3c(C)c2C)cc1 [Example 38, 1,5-anhydro-2,3-dideoxy-3-(6-(4-((3-methoxypropyl)carbamoyl)benzyl)-7,8-dimethyl-4-oxoquinazolin-3 (4H)-yl)-L-threo-pentitol] | 15
Cc1c(Cc2ccc(C(=O)NC34CC(C3)C4)cc2)cc2c(=O)n([C@H]3CCOC[C@@H]3O)cnc2c1C [Example 42, 1,5-anhydro-3-(6-(4-(bicyclo[1.1.1]penta-1-ylcarbamoyl)benzyl)-7,8-dimethyl-4-oxoquinazolin-3 (4H)-yl)-2,3-dideoxy-L-threo-pentitol] | 5.9
